How the values were obtained:
Phytophthora infestans = assay: whole plant or invertebrate; format: in vivo; conditions: Phytophthora infestans, in Solanum lycopersicum, 96 h, read-out: control value (Test 1)
Plasmopara viticola = assay: Test 3: control effect against grape downy mildew; format: in vivo; conditions: Plasmopara viticola, 120 h, control value vs untreated section
How it was run: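 Leaf lesion area, scored 5 days after inoculation and compared with untreated plants, gives the control value. Inoculation used P. viticola zoospores (1.0×10^4 units/ml) with a 16 hr moist incubation at 22° C. It followed by one day a spray of 4 ppm compound (wettable powder in Tween20) onto Neomuscat seedlings.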

[1] = tested on: Pseudoperonospora cubensis; assay: Test 2: control effect against cucumber downy mildew; format: in vivo; conditions: Pseudoperonospora cubensis, 120 h, control value vs untreated section
How it was run: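 Protective test: zoospores (1.0×10^4 units/ml) misted one day after applying a 4 ppm suspension (wettable powder diluted in 1/5000 Tween20) to 2-leaf cucumber, Sagami hanjiro. After 16 hr at 22° C humid incubation, leaf lesion area read at day 5, expressed as control value versus untreated leaves.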

Pythium graminicola = assay: Test 4: control effect against rice damping-off by the Pythium fungus (soil lavage); format: in vivo; conditions: 1,000 ppm, 2.5 ml test suspension drenched on contaminated soil, rice (koshihikari)
How it was run: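 Compound at 1,000 ppm in 1/5000 Tween20 was drenched (2.5 ml) onto Koshihikari rice seeds, 3 pre-sprouted seeds per cell, sown in soil infested with Pythium graminicola (5 g/kg). Regime: 28 °C for 72 h, 5 °C for 2 days, then 25 °C for 14 days. Dead and stunted seedlings were scored into an onset rate, and control value = (1 − treated/untreated) × 100.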

Work on Cc1cc(C(F)(F)F)nn1CC(=O)N1CCC(c2nc(C3OCc4c(F)ccc(OS(C)(=O)=O)c4CO3)cs2)CC1 (stereo not drawn) [Compound 1-8, 4-[4-(6-fluoro-9-methylsulfonyloxy-1,5-dihydro-3H-2,4-benzodioxepin-3-yl)-2-thiazolyl]-1-[2-[5-methyl-3-(trifluoromethyl)-1H-pyrazole-1-yl]acetyl]piperidine] yielded a pest or weed control at 4 µg/mL (Phytophthora infestans) of 100%, a pest or weed control at 4 µg/mL (Plasmopara viticola) of 100% and a melting point of 151 °C. The pest or weed control at 4 µg/mL [1] was 100%.
In the case of O=C(Cc1cc(Cl)ccc1Cl)N1CCC(c2nc(C3OCc4cccc(OC(F)F)c4CO3)cs2)CC1 (stereo not drawn) [Compound 2-48, 4-[4-[6-(difluoromethoxy)-1,5-dihydro-3H-2,4-benzodioxepin-3-yl]-2-thiazolyl]-1-[2-(2,5-dichlorophenyl)acetyl]piperidine], the pest or weed control at 4 µg/mL (Phytophthora infestans) was 100%, the pest or weed control at 4 µg/mL (Plasmopara viticola) was 100% and the pest or weed control at 1000 ppm (Pythium graminicola) was ≥ 90%. For the same compound, the pest or weed control at 4 µg/mL [1] was 100%.
With COc1ccc(F)c2c1COC(c1csc(C3CCN(C(=O)Cc4cc(C)ccc4C)CC3)n1)OC2 (stereo not drawn) [Compound 2-52, 4-[4-(6-fluoro-9-methoxy-1,5-dihydro-3H-2,4-benzodioxepin-3-yl)-2-thiazolyl]-1-[2-(2,5-dimethylphenyl)acetyl]piperidine] the pest or weed control at 4 µg/mL (Phytophthora infestans) was 100%, the pest or weed control at 4 µg/mL (Plasmopara viticola) was 100% and the pest or weed control at 1000 ppm (Pythium graminicola) was ≥ 90%. The pest or weed control at 4 µg/mL [1] was 100%.
In the case of Cc1ccc(C)c(N(C)C(=O)N2CCC(c3nc(C4OCc5c(F)ccc(OS(C)(=O)=O)c5CO4)cs3)CC2)c1 (stereo not drawn) [Compound 2-55, 4-[4-(6-fluoro-9-methylsulfonyloxy-1,5-dihydro-3H-2,4-benzodioxepin-3-yl)-2-thiazolyl]-1-[N-(2,5-dimethylphenyl)-N-methylcarbamoyl]piperidine], the pest or weed control at 4 µg/mL (Phytophthora infestans) was 100%, the pest or weed control at 4 µg/mL (Plasmopara viticola) was 100% and the pest or weed control at 1000 ppm (Pythium graminicola) was ≥ 90%. The pest or weed control at 4 µg/mL [1] was 100%.
For Cc1ccc(C)c(N(C)C(=O)N2CCC(c3nc(C4OCc5cccc(OS(C)(=O)=O)c5CO4)cs3)CC2)c1 (stereo not drawn) [Compound 2-56, 4-[4-(6-methylsulfonyloxy-1,5-dihydro-3H-2,4-benzodioxepin-3-yl)-2-thiazolyl]-1-[N-(2,5-dimethylphenyl)-N-methylcarbamoyl]piperidine], the pest or weed control at 4 µg/mL (Phytophthora infestans) was 90%, the pest or weed control at 4 µg/mL (Plasmopara viticola) was 70% and the pest or weed control at 1000 ppm (Pythium graminicola) was ≥ 90%. It also gave a pest or weed control at 4 µg/mL [1] of 30%.
In the case of Cc1ccc(C)c(CC(=S)N2CCC(c3nc(C4OCc5c(F)ccc(OS(C)(=O)=O)c5CO4)cs3)CC2)c1 (stereo not drawn) [Compound 2-57, 4-[4-(6-fluoro-9-methylsulfonyloxy-1,5-dihydro-3H-2,4-benzodioxepin-3-yl)-2-thiazolyl]-1-[2-(2,5-dimethylphenyl)thioacetyl]piperidine], the pest or weed control at 4 µg/mL (Phytophthora infestans) was 100%, the pest or weed control at 4 µg/mL (Plasmopara viticola) was 100% and the pest or weed control at 1000 ppm (Pythium graminicola) was ≥ 90%. For the same compound, the pest or weed control at 4 µg/mL [1] was 100%.

— patent US10104891B2 (priority 2014, dated 2018)
